The values that follow come from patent US20220144826A1, “Heteroaromatic and Heterobicyclic Aromatic Derivatives for the Treatment of Ferroptosis-Related Disorders” (COLLABORATIVE MEDICINAL DEVELOPMENT, LLC, priority 2019, published 2022).

Where only a bound is given, the exact number is not on record here.

In the first assay the test system is N27 rat dopaminergic neural cells. The assay can be described thus: MTT assay in N27 rat dopaminergic neural cells: inhibition of RSL3-induced cell death (ferroptosis). The format is cell-based. The settings on record: Rattus norvegicus, N27, 24 h, ferroptosis induced by 0.5 μM RSL3, 24 hours, viability by MTT. The procedure: MTT Assay in N27 Rat Dopaminergic Neural Cells
N27 rat dopaminergic neural cells (Millipore, SCC048) were cultured in RPMI-1640 media (Wisent, 350-000) supplemented with 1×GlutaMAX (Gibco, 35050-061), 10% FBS (embryonic stem cell qualified; Wisent, 920-040), and 1× Penicillin-Streptomycin (Wisent, 450-201). Cells were grown in humidified tissue culture incubator at 37° C. with 5% CO2, for up to 10 passages. To evaluate the ability of test compounds to inhibit RSL3-induced cell death, N27 cells were seeded in clear 96-well tissue culture plates (Sarstedt, 83.3924) at a density of 15,000 cells/well. On the next day, the medium was changed to fresh complete RPMI-1640. Eight-point dilution series of test compounds were added to the cells. Then, ferroptosis was induced by addition of 0.5 μM RSL3 (vehicle-treated cells served as control). Ferrostatin-1 (Fer-1) was included in each assay as control inhibitor of ferroptosis. Plates were incubated for 24 hours at 37° C. in a tissue culture incubator, then cell viability was determined by MTT assay. Briefly, Thiazolyl Blue Tetrazolium Bromide [3-(4,5-dimethylthiazol-2-yl)-2,5-diphenyltetrazolium bromide or “MTT” ] (Sigma) stock solution (5 mg/mL in PBS, sterilized by filtration) was diluted 1:1 with complete growth medium, and added on the cells to a final concentration of 0.5 mg/mL. Cells were incubated with MTT for 4 hours at 37° C., protected from light, in a humidified, 5% CO2 atmosphere. Medium was then completely removed from the wells by gentle aspiration and converted MTT formazan crystals were dissolved in 150 μL of DMSO. Absorbance of converted dye was measured at 595 nm with background subtraction at 690 nm using the BioTek Cytation5 Microplate Reader. Blank reading (absorbance from wells containing media and vehicle only, no cells) was removed from all sample wells. Viability was calculated as a percentage of control cells (vehicle-treated cells were set as 100% viability). Dose-response curves were drawn and IC50 values were calculated using GraphPad Prism software, version 7.
In general terms: Formazan colour is commonly taken as a measure of viable cells.
With `CCCCOc1nc2c(c(NC3CCCC3)n1)NCCC2` [Compound B-323, 2-Butoxy-N-cyclopentyl-5,6,7,8-tetrahydropyrido[3,2-d]pyrimidin-4-amine], the IC50 was determined as 43 nM.

On to `CC1(Nc2nc(C(F)(F)F)ccc2NC2CCOC2)CCOC1` (stereo not drawn) [Compound K-67, N^2-(3-methyltetrahydrofuran-3-yl)-N^3-tetrahydrofuran-3-yl-6-(trifluoromethyl)pyridine-2,3-diamine], for which the midpoint of inhibition, the IC50, lay at 355 nM. This IC50 is about 8.3-fold higher than that of the compound before.

For the compound `CCCCC(=O)c1cc2c(c(NC3CCOC3)c1)NCCC2` (stereo not drawn) [Compound Q-879, 1-[8-(tetrahydrofuran-3-ylamino)-1,2,3,4-tetrahydroquinolin-6-yl]pentan-1-one], the concentration for half-maximal inhibition (IC50) was 16.8 nM.

The compound `c1ncc(-c2ccc(NC3COC3)c(NC3CCCC3)n2)cn1` [Compound H-84, N^2-cyclopentyl-N^3-(oxetan-3-yl)-6-pyrimidin-5-yl-pyridine-2,3-diamine] registered an IC50 of 32 nM.

As for `CC(C)(C)C(=O)c1nc2c(c(NC3CCCC3)n1)NCCC2` [Compound A-35, 1-[4-(cyclopentylamino)-5,6,7,8-tetrahydropyrido[3,2-d]pyrimidin-2-yl]-2,2-dimethyl-propan-1-one], the IC50 stood at 248 nM.

`CCC/C=C/c1nc(NC2CCOC2)c2c(n1)OCC(=O)N2` (stereo not drawn) [Compound B-603, 4-[(oxolan-3-yl)amino]-2-[(1E)-pent-1-en-1-yl]-5H,6H,7H-pyrimido[4,5-b][1,4]oxazin-6-one] showed an IC50 greater than 3000 nM.

In the case of `N#Cc1nc2c(c(NC3CCCC3)n1)NCCC2` [Compound F-38, 4-(cyclopentylamino)-5,6,7,8-tetrahydropyrido[3,2-d]pyrimidine-2-carbonitrile], half-maximal inhibition (IC50) was put at 812 nM.

In the case of `CC1(Nc2nc(-c3ccccn3)ccc2NC2CCOC2)CCOC1` [Compound L-23, N^2-(3-methyltetrahydrofuran-3-yl)-6-(2-pyridyl)-N^3-tetrahydrofuran-3-yl-pyridine-2,3-diamine], the IC50 worked out at 141 nM.

As to `CCCC(=O)c1ccc(N)c(NC2CC(F)(F)C2)n1` [Compound P-46, 1-[5-amino-6-[(3,3-difluorocyclobutyl)amino]-2-pyridyl]butan-1-one], the IC50 turned out to be 498 nM.

As for `CCCCCc1nc(NC2CCOC2)c2c(n1)OCCN2` (stereo not drawn) [Compound B-604, 2-pentyl-N-tetrahydrofuran-3-yl-6,7-dihydro-5H-pyrimido[4,5-b][1,4]oxazin-4-amine], the midpoint of inhibition, the IC50, lay at 388 nM.

In turn, `CCCCC(=O)c1cc(F)c2c(c1)CCCN2` [Compound B-132] showed an IC50 greater than 3000 nM.

In turn, `CCCCNc1nc2c(c(NC3CCCC3)n1)NCCC2` [Compound B-433, N2-Butyl-N4-cyclopentyl-5,6,7,8-tetrahydropyrido[3,2-d]pyrimidine-2,4-diamine] had an IC50 of 726 nM. This counts as sub-micromolar.

Take `CCCCC(=O)c1cc2c(c(-n3ccnc3)c1)NCCC2` [Compound B-006, 1-(8-imidazol-1-yl-1,2,3,4-tetrahydroquinolin-6-yl)pentan-1-one]: the IC50 is greater than 3000 nM.

`CCCCC(=O)c1cc2c(c(N(S(=O)(=O)CC(C)C)S(=O)(=O)CC(C)C)c1)NCCC2` [Compound B-248, N-isobutylsulfonyl-2-methyl-N-(6-pentanoyl-1,2,3,4-tetrahydroquinolin-8-yl)propane-1-sulfonamide] showed an IC50 greater than 3000 nM.

As for `CC(C)(C)Nc1nc(OCC(F)(F)F)cc2c1NCC(C(F)(F)F)C2` (stereo not drawn) [Compound S-101, N-tert-butyl-6-(2,2,2-trifluoroethoxy)-3-(trifluoromethyl)-1,2,3,4-tetrahydro-1,7-naphthyridin-8-amine], the 50% inhibitory concentration (IC50) amounted to 1260 nM.

`CCC(C)Nc1ccc(-c2ccc(C)cc2)nc1NC(C)(C)C` [Compound L-02, N^2-tert-butyl-6-(p-tolyl)-N^3-sec-butyl-pyridine-2,3-diamine] gave an IC50 of 5 nM.

In turn, `CCCCC(=O)c1ccc2c(c1)C=CC(C)(C)N2` [Compound B-100, 1-(2,2-dimethyl-1,2-dihydroquinolin-6-yl)pentan-1-one] came in with an IC50 of 7440 nM.

For the compound `CCCC(=O)c1ccc(NC(C)CC)c(NC2CCCC2)n1` [Compound L-34, 1-[6-(cyclopentylamino)-5-(sec-butylamino)-2-pyridyl]butan-1-one], 21 nM corresponded to half-maximal inhibition (IC50).

The compound `CON(C)C(=O)c1ccc2c(c1)C=CC(C)(C)N2` [Compound B-065] gave an IC50 greater than 3000 nM.

As to `O=C(c1ccc(F)cc1)c1nc2c(c(NC3CCCC3)n1)NCCC2` [Compound A-17, [4-(cyclopentylamino)-5,6,7,8-tetrahydropyrido[3,2-d]pyrimidin-2-yl]-(4-fluorophenyl)methanone], the IC50 amounted to 123 nM. That is a sub-micromolar value.

Compound `c1nc2c(c(NC3CCCC3)n1)NCCC2` [Compound C-84, N-cyclopentyl-5,6,7,8-tetrahydropyrido[3,2-d]pyrimidin-4-amine] returned an IC50 of 646 nM.

`CCCCC(O)c1cc2c(c(Nc3ccccn3)c1)NCCC2` (stereo not drawn) [Compound B-250, 1-[8-(2-pyridylamino)-1,2,3,4-tetrahydroquinolin-6-yl]pentan-1-ol] showed an IC50 of 139 nM.

The compound `c1ncc(-c2ncc(NC3COC3)c(NC3CCCC3)n2)cn1` [Compound F-82, N^4-cyclopentyl-N^5-(oxetan-3-yl)-2-pyrimidin-5-yl-pyrimidine-4,5-diamine] came in with an IC50 greater than 625 nM.

On to `CCC(C)Nc1ccc(-c2ccccn2)nc1NC1(C)CCOC1` [Compound L-22, N^2-(3-methyltetrahydrofuran-3-yl)-6-(2-pyridyl)-N^3-sec-butyl-pyridine-2,3-diamine], for which the IC50 stood at 14 nM.

As to `CC#Cc1nc2c(c(NC3CCCC3)n1)NCCC2` [Compound A-12, N-cyclopentyl-2-prop-1-ynyl-5,6,7,8-tetrahydropyrido[3,2-d]pyrimidin-4-amine], the IC50 is 109 nM.

Compound `CC1=Nc2cc(C#N)ccc2NC1(C)C` [Compound Q-912, 2,2,3-trimethyl-1H-quinoxaline-6-carbonitrile] came in with an IC50 greater than 3000 nM.

In the case of `Cc1ccc(-c2ccc(NC(C)(C)C)c(NC(C)(C)C)n2)cc1` [Compound L-03, N^2,N^3-di-tert-butyl-6-(p-tolyl)pyridine-2,3-diamine], the IC50 worked out at 14 nM.

`CCCCC(=O)c1nc2c(c(NC3CCCC3)n1)NCCC2` [Compound C-82, 1-[4-(cyclopentylamino)-5,6,7,8-tetrahydropyrido[3,2-d]pyrimidin-2-yl]pentan-1-one]: it took 84 nM to reach half-maximal inhibition (IC50).

With `c1cc(-c2ccc(NC3COC3)c(NC3CCCC3)n2)ccn1` [Compound H-77, N^2-cyclopentyl-N^3-(oxetan-3-yl)-6-(4-pyridyl)pyridine-2,3-diamine], the IC50 is 13 nM.

In the case of `COCCOc1nc2c(c(NC3CCCC3)n1)NCCC2` [Compound B-495, N-cyclopentyl-2-(2-methoxyethoxy)-5,6,7,8-tetrahydropyrido[3,2-d]pyrimidin-4-amine], the IC50 was 160 nM.

Take `CCCCCc1nc2c(c(NC3CCCC3)n1)NCCC2` [Compound B-349, N-Cyclopentyl-2-pentyl-5,6,7,8-tetrahydropyrido[3,2-d]pyrimidin-4-amine]: half-maximal inhibition (IC50) was put at 170 nM. The IC50 values of the last two compounds are within 1.5-fold of each other.

On to `CC(C)=Cc1nc(C)nc(NC2CCCC2)c1N` [Compound F-99, N^4-cyclopentyl-2-methyl-6-(2-methylprop-1-enyl)pyrimidine-4,5-diamine], for which the IC50 is greater than 625 nM.

The compound `CCC/C=C/c1nc(NC2CCCC2)c2c(n1)OCCN2` [Compound B-710, N-cyclopentyl-2-[(E)-pent-1-enyl]-6,7-dihydro-5H-pyrimido[4,5-b][1,4]oxazin-4-amine] came in with an IC50 of 22 nM.

The compound `CCOC(=O)c1cc2c(c(NC3CCCC3)c1)NC(=O)CC2` [Compound B-148] showed an IC50 of 1670 nM.

In turn, `O=C(c1ccccc1)c1nc2c(c(NC3CCCC3)n1)NCCC2` [Compound A-16, [4-(cyclopentylamino)-5,6,7,8-tetrahydropyrido[3,2-d]pyrimidin-2-yl]-phenyl-methanone] showed an IC50 of 285 nM. This IC50 lies about 5.9-fold lower than the previous one.

Staying with this assay, now noted: ferroptosis induced by 0.5 μM RSL3, 24 hours, viability by MTT.
Turning to `CCCCCc1nc2c(c(NC3CCCC3)n1)NCCC2` [Compound A-63, N-cyclopentyl-2-pentyl-5,6,7,8-tetrahydropyrido[3,2-d]pyrimidin-4-amine], the IC50 is 313 nM. This counts as sub-micromolar.

In general, IC50 refers to the concentration needed to halve the response being measured. Higher therefore signals weaker potency.
